Source: US20150320762A1, “TREATMENT OF PROLIFERATIVE DISEASES WITH PYRIMIDODIAZEPINONES” (Cyclacel limited, priority 2012, published 2015)
Where two headings read alike, the source gives them in different places.

Assays:
[1] = Mouse PK data for selected compounds of the invention; type: in vivo; conditions: dose 1 mg/kg; for AUC / Cmax: plasma
Experimental: The plasma concentration is measured using standard LC-MS/MS analysis based on the following method. Calibration and control samples are prepared as follows from a 500 μg/mL solution of compound in methanol/DMSA 50/50 v/v. This stock solution is used to prepare diluted working standards of the test items with concentrations from 200 ng/ml to 500,000 ng/ml. The solutions are diluted with methanol and stored at +4° C. in glass vials when not in use. The working solutions are used to prepare calibration standards in control plasma, with a final concentration of between 10 ng/ml and 5000 ng/ml per 100 microlitres of plasma. These standards are prepared on day one of analysis and re-prepared as necessary on each analytical occasion. Internal standards are dissolved in methanol/DMSA 50/50 v/v and diluted to 1 μg/mL in acetonitrile for a working solution.
Plasma samples are extracted by the following method. Transfer 50 microlitres of each calibration, quality control and test sample to a 96-well mictrotitre plate. Add 200 microlitres of a 1 microgram per millilitre internal standard solution in acetonitrile to all samples except for a double blank. 200 microlitres of acetonitrile is added to the double blank. Samples are briefly vortex mixed, and centrifuged at 2128 g for 30 minutes. Recoverable supernatant is transferred to an appropriate well of a microtitre plate and extracts are evaporated with oxygen free nitrogen at a gas temperature of about 40° C. Extracts are reconstituted in 200 μL of mobile phase and mixed well. The plate is sealed with silicone-based pre-pierced web seal and used for LC-MS/MS analysis.
LC-MS/MS analysis can be performed using the following chromatography conditions.

[2] = mouse, dose 35 mg/kg, Rudolph et al.; cited from earlier work
[3] = test system: BAC and ESCC cell lines versus the benign OE cell line (CPA); assay: 96-well drug washout/outgrowth anti-proliferative assay (resazurin, day 6); type: cell-based; conditions: all timepoints
Experimental: Tumour sensitivity towards Plk1 inhibitors was studied in a panel of oesophageal (OE) cell lines. The cell lines used were: a benign Barrett's (CPA), two Barrett's adenocarcinoma (OE19 and OE33; Sigma Aldrich), and two oesophageal squamous cell carcinoma cell lines (OE21, ECACC; and KYSE-410, ECACC).
The anti-proliferative effect of Plk1 inhibitors was studied in a 96-well format drug washout/outgrowth assay. Cells were seeded at 1.5-2.5×10^3 cells per well in 96-well plates and left to incubate overnight at 37° C., 5% CO2, before addition of a range of concentrations of each of the different Plk1 inhibitors. Cells were incubated with the compounds for various periods of time, ranging from 3 to 24 hours; media containing the compounds was then removed from the cells and replaced with drug-free media until the end of the assay. The cell viability was evaluated on day 6 using a standard resazurin-based assay according to manufacturer's instructions (AlamarBlue, AbD Serotec, Oxford, UK). The IC50 values were determined using IDBS software.

SMILES	Cl_obs [1]	HL_Lambda_z [1]	Vz_obs [1]	AUC [1]	Cmax [1]	Cl_obs [2]	Cmax [2]	HL_Lambda_z [2]	Vz_obs [2]	differentiation between the cancerous and the benign cell lines [3]
COc1cc(C(=O)NC2CCN(C3CCOCC3)CC2)ccc1Nc1ncc2c(n1)N(C1CCCC1)CCC(=O)N2C [Compound A13, 4-(9-cyclopentyl-5-methyl-6-oxo-6,7,8,9-tetrahydro-5H-pyrimido[4,5-b][1,4]diazepin-2-ylamino)-3-methoxy-N-[1-(tetrahydro-pyran-4-yl)-piperidin-4-yl]-benzamide]	99.8 mL/min/kg	0.78 h	6.713 L/kg	164 ng·h/mL	405 ng/mL					
COc1cc(C(=O)N[C@H]2CC[C@H](N3CCN(CC4CC4)CC3)CC2)ccc1Nc1ncc2c(n1)N(C1CCCC1)CC1(CC1)C(=O)N2C [Compound A1, 4-(9′-cyclopentyl-5′-methyl-6′-oxo-5′,6′,8′,9′-tetrahydrospiro[cyclopropane-1,7′-pyrimido[4,5-b][1,4]diazepine]-2′-ylamino)-N-((trans)-4-(4-(cyclopropylmethyl)piperazin-1-yl)cyclohexyl)-3-methoxybenzamide]	21.22 mL/min/kg	2.89 h	5.304 L/kg	631 ng·h/mL	478 ng/mL					
CC[C@@H]1C(=O)N(C)c2cnc(Nc3ccc(C(=O)N[C@H]4CC[C@H](N5CCN(CC6CC6)CC5)CC4)cc3OC)nc2N1C(C)C [BI6727]						10 mL/min/kg	4390 ng/mL	46 h	7.6 L/kg	
CC[C@@H]1C(=O)N(C)c2cnc(Nc3ccc(C(=O)NC4CCN(C)CC4)cc3OC)nc2N1C1CCCC1 [BI2536]										little or no differentiation
COc1cc(C(=O)N[C@H]2CC[C@H](N3CCN(C)CC3)CC2)ccc1Nc1ncc2c(n1)N(C1CCCC1)CC1(CC1)C(=O)N2C [Compound A7, 4-(9′-cyclopentyl-5′-methyl-6′-oxo-5′,6′,8′,9′-tetrahydrospiro[cyclopropane-1,7′-pyrimido[4,5-b][1,4]diazepine]-2′-ylamino)-N-((trans)-4-(4-methylpiperazin-1-yl)cyclohexyl)-3-methoxybenzamide]	40.75 mL/min/kg	1.97 h	6.937 L/kg	377 ng·h/mL	453 ng/mL					
